These results are taken from US10538535B2, “Antitumoral compounds” (priority 2017, dated 2020).

Series [1] concerns HT29 cells. The series can be described thus: cells. Particulars: for CC50: read-out: LC50. A digest of the protocol: (§1)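 Human cancer lines grown in DMEM plus 10% FBS at 37° C. were plated at 5000 cells/well and left 18 hours before dosing. Test compounds (10 to 0.003 μg/mL, triplicates) acted for 72 hours, after which glutaraldehyde-fixed cells were stained with sulforhodamine B.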

The subject of series [2] is A549 cells. The experiment in a line: cells. Particulars: for CC50: read-out: LC50. A digest of the protocol:
as §1

A short description of series [3]: MTMD (Maximum Tolerated Multiple Dose) determination, iv weekly x3. As to conditions: mice; iv/Q7dx3. Format: in vivo. The source says:
(§2) Female CD-1 or Athymic Nude-Fox1 nu/nu mice (Envigo) were utilized for all experiments. […] Animals were acclimated for five days prior to being individually tattoo-identified. Animal protocols were reviewed and approved according to the regional Institutional Animal Care and Use Committees.
(§3) Mice were randomly allocated into experimental groups and intravenously administered, once for the MTD (Maximum Tolerated Dose) determination or one administration a week during three consecutive weeks, for the MTMD (Maximum Tolerated Multiple Dose) determination study. The animals were administered with white formulation or with compound dissolved in the experimental formulation at different concentrations. The volume administered was always 10 mL/kg. Once administered, animals were monitored for clinical signs of systemic toxicity, changes in body weight and mortality up to 14 days after the administration.

A short description of series [4]: MTD (Maximum Tolerated Dose) determination, single iv administration. Type of series: in vivo. Particulars: mice, iv/SD; for MTD at 14 days: female, mouse, in vivo.
Excerpt: as §2, §3

Series [5] relates to HT1080 tumors. The series can be described thus: In vivo xenograft, human fibrosarcoma HT1080. As to conditions: HT1080; Day 28; iv Days 0, 7, 14; 4-R 0.30 mg/kg. (Xenograft models place foreign cells or tissue in a host animal.)
Method: Female athymic nu/nu mice (Harlan Laboratories Models, S. L. Barcelona, Spain or Envigo, Spain) were utilized for all experiments. Animal were housed in individually ventilated cages Sealsafe® Plus, Techniplast S.P.A.), up to ten per cage on a 12-hour light-dark cycle at 21-23° C. and 40-60% humidity. […] Animals were acclimated for at least 5 days prior to tumor implantation with a tumor cell suspension.
HT1080 cells were maintained in vitro at 37° C. with 5% CO2 in Minimum Essential Medium Eagle (MEME) (Sigma-Aldrich, Co). Each animal was orthotopically implanted into gastroecnemius muscle by an intramuscular injection using a 26 G needle and a 1 cc syringe at 4-6 weeks of age, with 10×10^6 HT1080 cells, suspended in serum free medium, without antibiotics.
(§4) Treatment tolerability was assessed by monitoring body weight evolution, clinical signs of systemic toxicity, as well as evidences of local damage in the injection site.
In xenograft studies with HT1080 cell line: • Total diameter (tumor+leg) measurements were determined by using digital caliper (Fowler Sylvac, S235PAT).
(§5) Treatments producing >20% lethality and/or 20% net body weight loss were considered toxic.
The test system of series [6] is xenografted human tumor cell lines (breast, kidney and ovarian cancer). Particulars: xenografted human tumor cell lines in mice, such as breast; cited from earlier work.
For series [7], the system named is PSN1 cells. The experiment in a line: cells. Particulars: for CC50: read-out: LC50. A digest of the protocol:
as §1

The test system of series [8] is MDA-MB-231 cells. The experiment in a line: cells. As to conditions: for CC50: read-out: LC50. A digest of the protocol: as §1
For series [9], the system named is solid and non-solid tumour cell lines. Particulars: cited from earlier work.
In series [10] the test system is DU-145 tumors.
Method: Female athymic nu/nu mice (Harlan Laboratories Models, S. L. Barcelona, Spain or Envigo, Spain) were utilized for all experiments. Animal were housed in individually ventilated cages Sealsafe® Plus, Techniplast S.P.A.), up to ten per cage on a 12-hour light-dark cycle at 21-23° C. and 40-60% humidity. Mice were allowed free access to irradiated standard rodent diet (Tecklad 2914C) and sterilized water. Animals were acclimated for at least 5 days prior to tumor implantation with a tumor cell suspension.
Culture cells were passaged every 3 to 5 days upon reaching confluence Each male athymic mice was subcutaneously implanted (on the right flank using a 26 G needle and a 1 cc syringe) at 4-6 weeks of age with 5×10^6 DU-145 cells suspended in 0.05 mL of a solution consisting of 50% Matrigel® Matrix (Corning Incorporated Life Sciences) and 50% medium without serum or antibiotics.
as §4
In xenograft studies with other cell lines: • Tumor volume was calculated using the equation (a·b^2)/2, where a: length (longest diameter) and b: width (shortest diameter) were measured in mm by using digital caliper (Fowler Sylvac, S235PAT).
as §5
Tables and figures summarize the data obtained from complete experimental groups, i.e. those groups keeping the initial number of animals, n=8-10.
The mark [11] stands for this setting: MDA-MB-231, 72 hours treatment, SRB.

Where two headings read alike, the source gives them in different places.

`COc1c(C)cc2c(c1O)[C@@H]1[C@@H]3[C@@H]4SC[C@]5(N[C@@H](CO)Cc6c5[nH]c5ccccc65)C(=O)OC[C@@H](c5c6c(c(C)c(OC(C)=O)c54)OCO6)N3[C@@H](O)[C@H](C2)N1C` [Compound 4-R]: the CC50 is above 127 nM in series [1] (Homo sapiens, HT-29, 72 h) and above 127 nM in series [2] (Homo sapiens, A549, 72 h). The compound also yielded an MTMD in [3] of 0.30 mg/kg. For the same compound, in [4], the MTD at 14 days worked out at 0.25 mg/kg. In addition, in [5], the “Total diameter (tumor + leg)” value is recorded as 18.0 mm.

In the case of `COc1ccc2[nH]c3c(c2c1)CCN[C@]31CS[C@@H]2c3c(OC(C)=O)c(C)c4c(c3[C@H](COC1=O)N1[C@@H]2[C@H]2c3c(cc(C)c(OC)c3O)C[C@@H]([C@@H]1O)N2C)OCO4` [PM01183], the in vivo activity entry in series [6] was “significant in vivo activity”. The GI50 in series [1] (Homo sapiens, HT-29, 72 h) came out at 1.91 nM; in series [7] (Homo sapiens, PSN1, 72 h) it was 3.19 nM; in series [2] (Homo sapiens, A549, 72 h) it was 3.31 nM; in [8] (Homo sapiens, MDA-MB-231, 72 h) it was 2.29 nM. Moreover, the CC50 in series [1] (Homo sapiens, HT-29, 72 h) is above 127 nM; in [7] (Homo sapiens, PSN1, 72 h), 5.73 nM; in series [2] (Homo sapiens, A549, 72 h), above 127 nM; in series [8] (Homo sapiens, MDA-MB-231, 72 h), 10.2 nM. In addition, the IC (TGI) in [1] (Homo sapiens, HT-29, 72 h, read-out: TGI) worked out at 4.46 nM; in series [7] (Homo sapiens, PSN1, 72 h, read-out: TGI), 3.95 nM; in series [2] (Homo sapiens, A549, 72 h, read-out: TGI), 3.57 nM; in series [8] (Homo sapiens, MDA-MB-231, 72 h, read-out: TGI), 3.95 nM. The in vitro activity result in series [9] is “highly potent in vitro activity”.

For `COc1c(C)cc2c(c1O)[C@@H]1[C@@H]3[C@@H]4SC[C@]5(N[C@H](CO)Cc6c5[nH]c5ccccc65)C(=O)OC[C@@H](c5c6c(c(C)c(OC(C)=O)c54)OCO6)N3[C@@H](O)[C@H](C2)N1C` [Compound 4-S], the CC50 in series [1] (Homo sapiens, HT-29, 72 h) was above 127 nM; in [2] (Homo sapiens, A549, 72 h), above 127 nM. Also, the “Median Tumor Volume” value in series [10] (Day 0, 4-S 1.00 mg/Kg iv Days 0, 7 and 14) was 126.2 mm^3; in [10] (Day 3, 4-S 1.00 mg/Kg iv Days 0, 7 and 14), 102.4 mm^3; in [10] (Day 5, 4-S 1.00 mg/Kg iv Days 0, 7 and 14), 119.5 mm^3; in series [10] (Day 7, 4-S 1.00 mg/Kg iv Days 0, 7 and 14), 149.5 mm^3; in [10] (Day 10, 4-S 1.00 mg/Kg iv Days 0, 7 and 14) it was 216.8 mm^3; in [10] (Day 12, 4-S 1.00 mg/Kg iv Days 0, 7 and 14) it was 181.4 mm^3. For the same compound, the “Median Tumor Volume” value in series [10] (Day 14, 4-S 1.00 mg/Kg iv Days 0, 7 and 14) came to 237.7 mm^3; in [10] (Day 17, 4-S 1.00 mg/Kg iv Days 0, 7 and 14), 204.4 mm^3; in series [10] (Day 19, 4-S 1.00 mg/Kg iv Days 0, 7 and 14), 210.9 mm^3; in series [10] (Day 24, 4-S 1.00 mg/Kg iv Days 0, 7 and 14), 300.0 mm^3; in [10] (Day 26, 4-S 1.00 mg/Kg iv Days 0, 7 and 14), 378.4 mm^3; in series [10] (Day 28, 4-S 1.00 mg/Kg iv Days 0, 7 and 14), 587.0 mm^3. Besides, the “Median Tumor Volume” value in [10] (Day 31, 4-S 1.00 mg/Kg iv Days 0, 7 and 14) is 650.3 mm^3. This compound also came in with an MTMD in series [3] of 1.25 mg/kg. Further, the MTD at 14 days in series [4] came to 1 mg/kg.

For the compound `COc1ccc2[nH]c3c(c2c1)C[C@@H](CO)N[C@]31CS[C@@H]2c3c(OC(C)=O)c(C)c4c(c3[C@H](COC1=O)N1[C@@H]2[C@H]2c3c(cc(C)c(OC)c3O)C[C@@H]([C@@H]1O)N2C)OCO4` [Compound 19-S], the 50% growth inhibitory concentration (GI50) came out at 1.35 nM in series [1] (HT29, 72 hours treatment, SRB); 2.95 nM in series [7] (PSN1, 72 hours treatment, SRB); 3.07 nM in [2] (A549, 72 hours treatment, SRB); 1.96 nM in [8] (setting [11]). The TGI in [1] (HT29, 72 hours treatment, SRB) amounted to 1.60E−09 Molar; in series [7] (PSN1, 72 hours treatment, SRB), 3.19E−09 Molar; in series [2] (A549, 72 hours treatment, SRB), 3.31E−09 Molar; in [8] (setting [11]) it was 3.31E−09 Molar. For the same compound, the CC50 in series [1] (HT29, 72 hours treatment, SRB) is above 123 nM; in series [7] (PSN1, 72 hours treatment, SRB), above 123 nM; in series [2] (A549, 72 hours treatment, SRB) it was above 123 nM; in series [8] (setting [11]) it was 11 nM. This compound also returned an MTMD in series [3] of 0.75 mg/kg. The compound also came in with an MTD in series [4] of 0.5 mg/kg.

In general, MTD refers to the highest dose tested that stayed within the study's limit of toxicity. Usually GI50 stands for the concentration giving 50% growth inhibition. A lower GI50 goes with more potent growth inhibition.
